Consider 36 compounds from article PMC8074465, “Synthesis of oxadiazole-2-oxide derivatives as potential drug candidates for schistosomiasis targeting SjTGR” (Parasites & Vectors, 2021).

The target in this assay is T1, rSjTGR-Sec (Schistosoma japonicum, UniProt B5THG7).
T1 sequence (B5THG7 1-596): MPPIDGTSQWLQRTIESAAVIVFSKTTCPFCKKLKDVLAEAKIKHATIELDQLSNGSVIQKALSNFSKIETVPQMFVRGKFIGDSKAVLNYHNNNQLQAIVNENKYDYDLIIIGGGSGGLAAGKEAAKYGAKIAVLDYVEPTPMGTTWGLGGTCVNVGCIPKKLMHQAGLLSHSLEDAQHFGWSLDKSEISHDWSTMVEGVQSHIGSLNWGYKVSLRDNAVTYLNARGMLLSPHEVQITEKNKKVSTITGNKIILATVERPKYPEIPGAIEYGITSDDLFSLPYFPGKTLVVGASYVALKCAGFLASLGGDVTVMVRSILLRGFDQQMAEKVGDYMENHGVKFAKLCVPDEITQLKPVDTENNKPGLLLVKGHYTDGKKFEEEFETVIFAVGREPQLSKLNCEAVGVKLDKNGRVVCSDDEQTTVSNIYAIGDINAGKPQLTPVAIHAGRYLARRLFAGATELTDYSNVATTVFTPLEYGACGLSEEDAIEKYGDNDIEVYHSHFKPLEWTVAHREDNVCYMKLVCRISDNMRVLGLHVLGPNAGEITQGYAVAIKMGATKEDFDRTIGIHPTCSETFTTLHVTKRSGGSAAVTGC
Put plainly: Inhibition of TrxR activity of rSjTGR-Sec (DTNB reduction, absorbance 412 nm). The class given is biochemical. Conditions: for inhibitory effect on rSjTGR-Sec (in words): furoxan as positive control. As to the method: The rSjTGR-Sec was expressed and harvested as described previously. […] The rSjTGR-Sec was purified by His Mag™ Agarose beads according to manufacturer’s instructions. The concentration of purified rSjTGR-Sec was determined using a Bradford assay kit (Sangon, China), and the protein was identified by sodium dodecyl sulfate polyacrylamide gel electrophoresis (SDS-PAGE) and stored at 4 °C [20].
The novel furoxan derivatives in this work were dissolved in DMSO with a storage solution concentration of 64 millimoles per liter. The analysis of TrxR activity of SWAP containing wtSjTGR and rSjTGR-Sec was performed based on methods described previously. Analysis of the inhibitory activity of the compounds against the TrxR activity of SWAP containing wtSjTGR and rSjTGR-Sec described in this paper was also based on a previously described method. The reaction was performed in 0.1 M potassium phosphate buffer (pH 7.0) containing 10 mM EDTA, 100 µM nicotinamide adenine dinucleotide phosphate (NADPH), 0.2 µg supernatant of SWAP containing wtSjTGR or 0.6 µg rSjTGR-Sec, and the studied compounds with different concentrations at 25 °C in a final volume of 200 μL, and was initiated by adding 3 mM DTNB. […] All assays were done in triplicate.

The mark [1] stands for this setting: DTNB, pH 7.0, 25 °C, triplicate, >50 μM = flat response within range tested, read-out: IC50 of rSjTGR-Sec.

“And” between values parts separate entries of the source, which are not always exact repeats. Equal entries are not always repeated. Where two headings read alike, the source gives them in different places. Where only a bound is given, the exact number is not on record here.

With `[O-][n+]1onc(-c2ccncc2)c1CO` [6a, 3-(hydroxymethyl)-4-(pyridin-4-yl)-1,2,5-oxadiazole 2-oxide], the IC50 (usually the concentration needed to halve the response being measured) under setting [1] worked out at 0.036 ± 0.002 µM and the IC50 (read-out: IC50 of rSjTGR-Sec) amounted to 0.036 µM.
For the compound `[O-][n+]1onc(-c2cccnc2)c1CO` [6b, 3-(hydroxymethyl)-4-(pyridin-3-yl)-1,2,5-oxadiazole 2-oxide], the IC50 under setting [1] worked out at 0.39 ± 0.02 µM.
The same measure, in the same setting: the result for `COc1ccc(-c2no[n+]([O-])c2CO)cn1` [6c, 3-(hydroxymethyl)-4-(6-methoxypyridin-3-yl)-1,2,5-oxadi-azole 2-oxide] reads 2.4 µM and 2.38 µM.
Regarding `[O-][n+]1onc(-c2ccc(C(F)(F)F)nc2)c1CO` [6d, 3-(hydroxymethyl)-4-(6-(trifluoromethyl)pyridine-3-yl)-1,2,5-oxadiazole 2-oxide], the IC50 by setting is: under setting [1], 0.0558 ± 0.00318 µM; (read-out: IC50 of rSjTGR-Sec) 0.0075 µM and 0.0558 µM.
With `CC(=O)OCc1c(-c2ccncc2)no[n+]1[O-]` [7aa, 3-(acetoxymethyl)-4-(pyridin-4-yl)-1,2,5-oxadiazole 2-oxide], the half-maximal inhibitory concentration (IC50) under setting [1] is more than 50 µM.
For `CCC(=O)OCc1c(-c2ccncc2)no[n+]1[O-]` [7ab, 3-((propionyloxy)methyl)-4-(pyridin-4-yl)-1,2,5-oxadiazole 2-oxide], the IC50 under setting [1] was more than 50 µM.
On the same count and under the same terms, the result for `CCCC(=O)OCc1c(-c2ccncc2)no[n+]1[O-]` [7ac, 3-((butyryloxy)methyl)-4-(pyridin-4-yl)-1,2,5-oxadiazole 2-oxide] reads more than 50 µM; that for `CC(C)(C)C(=O)OCc1c(-c2ccncc2)no[n+]1[O-]` [7ad, 3-((pivaloyloxy)methyl)-4-(pyridin-4-yl)-1,2,5-oxadiazole 2-oxide], more than 50 µM.
For the compound `O=C(CCl)OCc1c(-c2ccncc2)no[n+]1[O-]` [7ae, 3-((2-chloroacetoxy)methyl)-4-(pyridin-4-yl)-1,2,5-oxadiazole 2-oxide], the “inhibitory effect on rSjTGR-Sec (in words)” value is “did not show an effective inhibitory effect”. The IC50 under setting [1] was more than 50 µM.
Turning to `O=C(OCc1c(-c2ccncc2)no[n+]1[O-])c1ccccc1` [7af, 3-((benzoyloxy)methyl)-4-(pyridin-4-yl)-1,2,5-oxadiazole 2-oxide], under setting [1], the IC50 worked out at 3.23 ± 0.05 µM.
As for `O=C(OCc1c(-c2ccncc2)no[n+]1[O-])c1ccc(F)cc1` [7ag, 3-(((4-fluorobenzoyl)oxy)methyl)-4-(pyridin-4-yl)-1,2,5-oxadiazole 2-oxide], the IC50 under setting [1] was more than 50 µM.
Still for that read-out and setting: the result for `O=C(OCc1c(-c2ccncc2)no[n+]1[O-])c1c(F)c(F)c(F)c(F)c1F` [7ah, 3-(((perfluorobenzoyl)oxy)methyl)-4-(pyridin-4-yl)-1,2,5-oxadiazole 2-oxide] reads more than 50 µM.
Regarding `O=C(OCc1c(-c2ccncc2)no[n+]1[O-])c1cc(C(F)(F)F)cc(C(F)(F)F)c1` [7ai, 3-(((3,5-bis(trifluoromethyl)benzoyl)oxy)methyl)-4-(pyridin-4-yl)-1,2,5-oxadiazole 2-oxide], the IC50 under setting [1] is more than 50 µM.
Take `CC(=O)OCc1c(-c2cccnc2)no[n+]1[O-]` [7ba, 3-(acetoxymethyl)-4-(pyridin-3-yl)-1,2,5-oxadiazole 2-oxide]: the IC50 under setting [1] is more than 50 µM.
For `CCC(=O)OCc1c(-c2cccnc2)no[n+]1[O-]` [7bb, 3-((propionyloxy)methyl)-4-(pyridin-3-yl)-1,2,5-oxadiazole 2-oxide], under setting [1], the IC50 is more than 50 µM.
For `CCCC(=O)OCc1c(-c2cccnc2)no[n+]1[O-]` [7bc, 3-((butyryloxy)methyl)-4-(pyridin-3-yl)-1,2,5-oxadiazole 2-oxide], the IC50 under setting [1] is more than 50 µM.
For `CC(C)(C)C(=O)OCc1c(-c2cccnc2)no[n+]1[O-]` [7bd, 3-((pivaloyloxy)methyl)-4-(pyridin-3-yl)-1,2,5-oxadiazole 2-oxide], the IC50 under setting [1] was more than 50 µM.
Same read-out and setting: the result for `O=C(CCl)OCc1c(-c2cccnc2)no[n+]1[O-]` [7be, 3-((2-chloroacetoxy)methyl)-4-(pyridin-3-yl)-1,2,5-oxadiazole 2-oxide] reads 14.8 ± 3.67 µM; that for `O=C(OCc1c(-c2cccnc2)no[n+]1[O-])c1ccccc1` [7bf, 3-((benzoyloxy)methyl)-4-(pyridin-3-yl)-1,2,5-oxadiazole 2-oxide], more than 50 µM; that for `O=C(OCc1c(-c2cccnc2)no[n+]1[O-])c1ccc(F)cc1` [7bg, 3-(((4-fluorobenzoyl)oxy)methyl)-4-(pyridine-3-yl)-1,2,5-oxadiazole 2-oxide], more than 50 µM.
For `O=C(OCc1c(-c2cccnc2)no[n+]1[O-])c1c(F)c(F)c(F)c(F)c1F` [7bh, 3-(((perfluorobenzoyl)oxy)methyl)-4-(pyridine-3-yl)-1,2,5-oxadiazole 2-oxide], the IC50 under setting [1] was more than 50 µM.
On to `O=C(OCc1c(-c2cccnc2)no[n+]1[O-])c1cc(C(F)(F)F)cc(C(F)(F)F)c1` [7bi, 3-(((3,5-bis(trifluoromethyl)benzoyl)oxy)methyl)-4-(pyridin-3-yl)-1,2,5-oxadiazole 2-oxide], for which the IC50 under setting [1] was more than 50 µM.
Regarding `C=CC(=O)OCc1c(-c2cccnc2)no[n+]1[O-]` [7bj, 3-((acryloyloxy)methyl)-4-(pyridin-3-yl)-1,2,5-oxadiazole 2-oxide], the IC50 under setting [1] was more than 50 µM.
Take `O=C(OCc1c(-c2cccnc2)no[n+]1[O-])c1cccs1` [7bk, 4-(pyridin-3-yl)-3-(((thiophene-2-carbonyl)oxy)methyl) -1,2,5-oxadiazole 2-oxide]: the IC50 under setting [1] is more than 50 µM.
Regarding `COc1ccc(-c2no[n+]([O-])c2COC(C)=O)cn1` [7ca, 3-(acetoxymethyl)-4-(6-methoxypyridin-3-yl)-1,2,5-oxadiazole 2-oxide], the IC50 under setting [1] is more than 50 µM.
As to `COc1ccc(-c2no[n+]([O-])c2COC(=O)c2ccccc2)cn1` [7cf, 3-((benzoyloxy)methyl)-4-(6-methoxypyridin-3-yl)-1,2,5-oxadiazole 2-oxide], the “inhibitory effect on rSjTGR-Sec (in words)” value is “did not show an inhibitory effect”. Further, under setting [1], the IC50 is more than 50 µM.
Regarding `CC(=O)OCc1c(-c2ccc(C(F)(F)F)nc2)no[n+]1[O-]` [7da, 3-(acetoxymethyl)-4-(6-(trifluoromethyl)pyridin-3-yl)-1,2,5-oxadiazole 2-oxide], the IC50 under setting [1] is more than 50 µM.
For the compound `O=C(OCc1c(-c2ccc(C(F)(F)F)nc2)no[n+]1[O-])c1ccccc1` [7df, 3-((benzoyloxy)methyl)-4-(6-(trifluoromethyl)pyridin-3-yl)-1,2,5-oxadiazole 2-oxide], the IC50 under setting [1] was more than 50 µM.
On the same count and under the same terms, as for `[O-][n+]1onc(-c2ccncc2)c1CNc1ccccc1` [9aa, 3-((phenylamino)methyl)-4-(pyridin-4-yl)-1,2,5-oxad-iazole 2-oxide], the figure is more than 50 µM; as for `[O-][n+]1onc(-c2ccncc2)c1CNc1ccc(OC(F)(F)F)cc1` [9ab, 4-(pyridin-4-yl)-3-(((4-(trifluoromethoxy)phenyl)amino)methyl)-1,2,5-oxadiazole 2-oxide], 1.52 ± 0.2 µM.
Take `[O-][n+]1onc(-c2ccncc2)c1CN1CCN(c2ccc(F)cc2)CC1` [9ac, 3-((4-(4-fluorophenyl)piperazin-1-yl)methyl)-4-(pyridin-4-yl)-1,2,5-oxadiazole 2-oxide]: the 50% inhibitory concentration (IC50) under setting [1] is more than 50 µM.
Consider `[O-][n+]1onc(-c2ccncc2)c1CN1CCN(c2cccc(C(F)(F)F)c2)CC1` [9ad, 4-(pyridin-4-yl)-3-((4-(3-(trifluoromethyl)phenyl)piperazin-1-yl)methyl)-1,2,5-oxadiazole 2-oxide], for which the IC50 under setting [1] is more than 50 µM.
On to `[O-][n+]1onc(-c2cccnc2)c1CNc1ccccc1` [9ba, 3-((phenylamino)methyl)-4-(pyridin-3-yl)-1,2,5-oxadiazole 2-oxide], for which, under setting [1], the IC50 was more than 50 µM.
As to `[O-][n+]1onc(-c2cccnc2)c1CNc1ccc(OC(F)(F)F)cc1` [9bb, 4-(pyridin-3-yl)-3-(((4-(trifluoromethoxy)phenyl)amino)methyl)-1,2,5-oxadiazole 2-oxide], the IC50 under setting [1] is more than 50 µM.
As for `[O-][n+]1onc(-c2cccnc2)c1CN1CCN(c2ccc(F)cc2)CC1` [9bc, 3-((4-(4-fluorophenyl)piperazin-1-yl)methyl)-4-(pyridin-3-yl)-1,2,5-oxadiazole 2-oxide], the IC50 under setting [1] is more than 50 µM.
Under “IC50 of rSjTGR-Sec, DTNB, pH 7.0, 25 °C, triplicate, >50 μM = flat response within range tested”, `Cc1ccc(S(=O)(=O)N(Cc2c(-c3cccnc3)no[n+]2[O-])O[Si](C)(C)C(C)(C)C)cc1` [9be, 3-(((N-((tert-butyldimethylsilyl)oxy)-4-methylphenyl)sulfonamido)methyl)-4-(pyridin-3-yl)-1,2,5-oxadiazole 2-oxide] returned an IC50 of 0.22 ± 0.01 µM.
